Measured values taken from patent US20080280934A1, “Method of Preparing Porphyrin Derivatives, Porphyrin Derivatives, Uses Thereof and Pharmaceutical Compositions” (priority 2003, published 2008).

Assays:
[1] = maximum absorption wavelength (λmax); format: physicochemical; details: for maximum absorption wavelength: in both dichloromethane and methanol; for λmax / absorption maximum: solvent not stated
Method: Refluxing of pure 4a in trichloroacetic acid at 175° C. leads surprising to a new peri-annulated quinoporphyrin-product (5a). The oxidizing agent performing the final oxidation (closing the heterocyclic ring of the quinoline-ring system) to result in the new product is oxygen from the air, similar to what is known for other reactions involving porphyrins (see Woodward, J., Am.. Chem. Soc.. (1960) […]., pp. 3800-3802). The λmax of this new compound 5a is, compared with mesoporphyrindimethylester 1, shifted towards the red (respective values for λmax are: 567 nm and 638 nm).
If desired the metal ion used (here nickel) may be removed in a conventional manner (5 min. conc. sulphuric acid at room temperature, the time required to dissolve completely), yielding the corresponding compounds 6a-6d. Noteworthy are the maximum absorption wavelengths for 6a, 6b, 6c and 6d which are 681, 688, 688 and 683 nm respectively (in both dichloromethane and methanol),which are very long for entirely unsaturated porphyrin ring systems. Benzylation of the quinoline-ring system nitrogen with benzyl bromide/ potassium iodide leads to formation of a cationic benzylated quinoporphyrin (18 N-benzylquinolinium[4,4a,5,6-efg]-annulated mesoporphyrin dimethylester with an absorption maximum at 755 nm. Hydrolysation of this compound yields N-benzylquinolinium[4,4a,5,6-efg]-annulated mesoporphyrin (19).

[2] = solubility of the purified porphyrin in demineralized water; format: physicochemical; details: at about pH 8, demineralized water
Method: A solution of 0.61 gram of 6a in 25 ml tetrahydrofuran (THF) was mixed with a solution of 0.20 gram sodium hydroxide in 120 ml of water and refluxed during 1 hour. The reaction was followed with silicagel thin layer chromatography using THF as the eluens. When the reaction is finished THF and water were removed by distillation under reduced pressure until the volume was approximately 20 ml. The crude product was purified over 10 grams of CM Sephadex cation exchanger (bead size 40-120 μm) from Sigma-Aldrich, which was first treated with 1 M hydrochloric acid and then washed with demineralized water. First the porphyrin solution was carried onto the sephadex gel, and washed with demineralized water to remove salts. The purified porphyrin was eluted with 1% ammoniumhydroxide in water. The resulting brown solution was evaporated to dryness, then demineralized water was added and again the solution was evaporated to dryness to remove traces of ammonia. […] Yet this solubility of about 0.5 mg/ml at about pH 8 is better than for other porphyrin compounds such as MTHPC which is currently used in photodynamic therapy. 0.45 grams (77%) of the dicarboxylic acid 7a was obtained.

maximum absorption wavelength [1] [nm]	λmax / absorption maximum [1] [nm]	Substance	other results
	755	N-benzylquinolinium[4,4a,5,6-efg]-annulated mesoporphyrin dimethylester [compound 18]	
	567	mesoporphyrin dimethylester [compound 1, reference compound]	
688		2′-methoxycarbonylquino[4,4a,5,6-jkl]-annulated 12-demethyl-13-de[2-(methoxycarbonyl)ethyl]mesoporphyrin dimethylester [6b]	
688		2′-methoxycarbonylquino[4,4a,5,6-qrs]-annulated 18-demethyl-17-de[2-(methoxycarbonyl)ethyl]mesoporphyrin dimethylester [6c]	

Continued, substance first:

Substance	maximum absorption wavelength [1] [nm]	λmax / absorption maximum [1] [nm]	other results
quino[4,4a,5,6-abt]-annulated 2-demethyl-3-deethylmesoporphyrin dimethylester [6d]	683		
quino[4,4a,5,6-efg]-annulated 7-demethyl-8-deethylmesoporphyrin dimethylester [6a]	681		
quino[4,4a,5,6-efg]-annulated 7-demethyl-8-deethylmesoporphyrin dimethylester nickel (II) complex [5a]		638	
quino[4,4a,5,6-efg]-annulated 7-demethyl-8-deethylmesoporphyrin [7a]			solubility [2]: about 0.5 mg/ml
